Measured values from US20240199587A1, “HETEROCYCLIC COMPOUNDS” (Hoffmann-La Roche Inc., priority 2021, published 2024).

target: T1, MAGL (Homo sapiens, UniProt Q99685); assay: 2-AG assay (MAGL inhibitory activity, hydrolysis of 2-arachidonoylglycerol to arachidonic acid followed by mass spectrometry); type: biochemical; details: 8 μM 2-arachidonoylglycerol, 15 min pre-incubation, 30 min incubation at RT, RapidFire MS readout
T1 sequence (Q99685 1-303): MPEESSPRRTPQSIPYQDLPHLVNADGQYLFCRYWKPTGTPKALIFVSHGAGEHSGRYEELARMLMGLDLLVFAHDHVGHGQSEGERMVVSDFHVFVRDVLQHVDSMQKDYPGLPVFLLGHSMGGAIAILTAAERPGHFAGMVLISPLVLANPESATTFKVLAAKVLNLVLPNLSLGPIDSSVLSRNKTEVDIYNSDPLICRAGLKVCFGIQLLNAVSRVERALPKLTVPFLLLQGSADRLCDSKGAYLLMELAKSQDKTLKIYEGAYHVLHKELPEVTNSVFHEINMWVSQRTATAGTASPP
In short: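 Arachidonic acid released from 8 μM 2-arachidonoylglycerol was quantified by online SPE triple-quadrupole MS (negative ESI, 303.1→259.1), normalised to d8-arachidonic acid internal standard. Reaction ran 30 min at RT after 15 min RT compound pre-incubation with […] MAGL in TRIS/EDTA/Tween-20 buffer, 2.5% DMSO.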

For `O=C(N1CC2(CC(n3cnc(C4CC4)n3)C2)C1)N1CC2(C1)CN(S(=O)(=O)c1ccc(OC(F)(F)F)cc1)C2` [Example 230, [6-(3-cyclopropyl-1,2,4-triazol-1-yl)-2-azaspiro[3.3]heptan-2-yl]-[2-[4-(trifluoromethoxy)phenyl]sulfonyl-2,6-diazaspiro[3.3]heptan-6-yl]methanone], which IC50 is on record?
Its IC50 is 4.6 nM.

With `NC(=O)C(c1ccc(F)cc1)C1CCN(C(=O)N2CC3(CC(n4cnc(C5CC5)n4)C3)C2)CC1` (single isomer, unassigned) [Example 301] as the compound, how does the IC50 read?
The IC50 was 97.3 nM.

For `CC(C)(C)c1ccc(C2CN(C(=O)N3CC4(CC(n5cnc(C6CC6)n5)C4)C3)C2)cc1` [Example 44, [3-(4-tert-butylphenyl)azetidin-1-yl]-[6-(3-cyclopropyl-1,2,4-triazol-1-yl)-2-azaspiro[3.3]heptan-2-yl]methanone], which IC50 is on record?
Its IC50 is 0.2 nM.

For `CS(=O)(=O)c1cc(F)ccc1O[C@H]1C[C@@H]2CN(C(=O)N3CC4(CC(n5cnc(C6CC6)n5)C4)C3)C[C@@H]2C1` [Example 123, [6-(3-cyclopropyl-1,2,4-triazol-1-yl)-2-azaspiro[3.3]heptan-2-yl]-[rac-(3aS,6aR)-5-(4-fluoro-2-methylsulfonyl-phenoxy)-3,3a,4,5,6,6a-hexahydro-1H-cyclopenta[c]pyrrol-2-yl]methanone], which IC50 is on record?
The IC50 was 41.9 nM.

With `CS(=N)(=O)c1cccc(CC2CC3(C2)CN(C(=O)N2CC4(CC(n5cnc(C6CC6)n5)C4)C2)C3)c1` (single isomer, unassigned) [Example 440, [6-(3-cyclopropyl-1,2,4-triazol-1-yl)-2-azaspiro[3.3]heptan-2-yl]-[6-[[3-(methylsulfonimidoyl)phenyl]methyl]-2-azaspiro[3.3]heptan-2-yl]methanone] as the compound, how does the IC50 read?
Its IC50 is 1.88 nM.

With `O=C(N1CC(c2ccc(NCC3(C(F)(F)F)CC3)cn2)C1)N1CC2(CC(n3cnc(C4CC4)n3)C2)C1` [Example 478, [6-(3-cyclopropyl-1,2,4-triazol-1-yl)-2-azaspiro[3.3]heptan-2-yl]-[3-[5-[[1-(trifluoromethyl)cyclopropyl]methylamino]-2-pyridyl]azetidin-1-yl]methanone] as the compound, how does the IC50 read?
The IC50 was 0.74 nM.

How did the IC50 turn out when `O=C(N1CC2(CC(n3cnc(C4CC4)n3)C2)C1)N1CC2(CN(Cc3ccc(S(=O)(=O)C(F)(F)F)cc3)C2)C1` [Example 469, [6-(3-cyclopropyl-1,2,4-triazol-1-yl)-2-azaspiro[3.3]heptan-2-yl]-[6-[[4-(trifluoromethylsulfonyl)phenyl]methyl]-2,6-diazaspiro[3.3]heptan-2-yl]methanone] was run?
The IC50 was 0.48 nM.

With `O=C(N1CC(c2nnc(CC3CC3)[nH]2)C1)N1CC2(CC(n3cnc(C4CC4)n3)C2)C1` [Example 333, [3-[5-(cyclopropylmethyl)-4H-1,2,4-triazol-3-yl]azetidin-1-yl]-[6-(3-cyclopropyl-1,2,4-triazol-1-yl)-2-azaspiro[3.3]heptan-2-yl]methanone] as the compound, how does the IC50 read?
The IC50 was 949 nM.

How did the IC50 turn out when `O=C(N1CC2(CC(n3cnc(C4(O)CC4)n3)C2)C1)N1CC2(CN(Cc3ccc(S(=O)(=O)C(F)(F)F)cc3)C2)C1` [Example 412, [6-[3-(1-hydroxycyclopropyl)-1,2,4-triazol-1-yl]-2-azaspiro[3.3]heptan-2-yl]-[6-[[4-(trifluoromethylsulfonyl)phenyl]methyl]-2,6-diazaspiro[3.3]heptan-2-yl]methanone] was run?
The IC50 was 7.96 nM.

Which IC50 does the source give for `O=C(N1CC(OCc2cc(F)cc(C(F)(F)F)c2)C1)N1CC2(CC(n3cnc(C4CC4)n3)C2)C1` [Example 76, (6-(3-cyclopropyl-1H-1,2,4-triazol-1-yl)-2-azaspiro[3.3]heptan-2-yl)(3-((3-fluoro-5-(trifluoromethyl)benzyl)oxy)azetidin-1-yl)methanone] here?
The IC50 was 2.2 nM.

For `O=C(N1CC2(CCC(Cc3ccc(F)cn3)CC2)C1)N1CC2(CC(c3ccc(C(F)(F)F)nc3)C2)C1` [Example 516, [7-[(5-fluoro-2-pyridyl)methyl]-2-azaspiro[3.5]nonan-2-yl]-[6-[6-(trifluoromethyl)-3-pyridyl]-2-azaspiro[3.3]heptan-2-yl]methanone], which IC50 is on record?
The IC50 was 699 nM.

`CC(C)c1ccc(N(C)c2ccc(C3CN(C(=O)N4CC5(CC(c6ccc(C(F)(F)F)nc6)C5)C4)C3)cn2)cc1` [Example 534, [3-[6-(4-isopropyl-N-methyl-anilino)-3-pyridyl]azetidin-1-yl]-[6-[6-(trifluoromethyl)-3-pyridyl]-2-azaspiro[3.3]heptan-2-yl]methanone] was tested. Which IC50 did it give?
Its IC50 is 1760 nM.

Which IC50 does the source give for `O=C(N1CC2(CC(Cc3ccc(Cl)cn3)C2)C1)N1CC2(C1)CN(c1cncc(F)c1)C2` [Example 348, [6-[(5-chloro-2-pyridyl)methyl]-2-azaspiro[3.3]heptan-2-yl]-[6-(5-fluoro-3-pyridyl)-2,6-diazaspiro[3.3]heptan-2-yl]methanone] here?
The IC50 was 66.3 nM.

With `O=C(N1CC(c2ccc(C3(N4CCOCC4)CC3)cc2)C1)N1CC2(CC(n3cnc(C4CC4)n3)C2)C1` [Example 34, [6-(3-cyclopropyl-1,2,4-triazol-1-yl)-2-azaspiro[3.3]heptan-2-yl]-[3-[4-(1-morpholinocyclopro-pyl)phenyl]azetidin-1-yl]methanone] as the compound, how does the IC50 read?
The IC50 was 5.7 nM.

For `Cc1cc(C(=O)N2CC3(CC(n4cnc(C5CC5)n4)C3)C2)cnc1OCC1(C(F)(F)F)CC1` [Example 24, [6-(3-cyclopropyl-1,2,4-triazol-1-yl)-2-azaspiro[3.3]heptan-2-yl]-[5-methyl-6-[[1-(trifluoromethyl)cyclo-propyl]methoxy]-3-pyridyl]methanone], which IC50 is on record?
The IC50 was 7.7 nM.

How did the IC50 turn out when `O=C(N1CC(c2ccn(CC(F)(F)F)c(=O)c2)C1)N1CC2(CC(n3cnc(C4CC4)n3)C2)C1` [Example 261, 4-[1-[6-(3-cyclopropyl-1,2,4-triazol-1-yl)-2-azaspiro[3.3]heptane-2-carbonyl]azetidin-3-yl]-1-(2,2,2-trifluoroethyl)pyridin-2-one] was run?
The IC50 was 24.2 nM.

With `Cn1cc(S(=O)(=O)N2CC3(CN(C(=O)N4CC5(CC(n6cnc(C7CC7)n6)C5)C4)C3)C2)cn1` [Example 331, [6-(3-cyclopropyl-1,2,4-triazol-1-yl)-2-azaspiro[3.3]heptan-2-yl]-[2-(1-methylpyrazol-4-yl)sulfonyl-2,6-diazaspiro[3.3]heptan-6-yl]methanone] as the compound, how does the IC50 read?
The IC50 was 797 nM.

Which IC50 does the source give for `COc1ccn(C2CC3(C2)CN(C(=O)c2ccc(-c4noc(C(C)(C)C)n4)cc2)C3)n1` [Example 13, [4-(5-tert-butyl-1,2,4-oxadiazol-3-yl)phenyl]-[6-(3-methoxypyrazol-1-yl)-2-azaspiro[3.3]heptan-2-yl]methanone] here?
The IC50 was 152 nM.

For `O=C(N1CC(C23CC(c4nnc(C5CC5)[nH]4)(C2)C3)C1)N1CC2(CC(n3cnc(C4CC4)n3)C2)C1` [Example 432, [6-(3-cyclopropyl-1,2,4-triazol-1-yl)-2-azaspiro[3.3]heptan-2-yl]-[3-[3-(5-cyclopropyl-4H-1,2,4-triazol-3-yl)-1-bicyclo[1.1.1]pentanyl]azetidin-1-yl]methanone], which IC50 is on record?
The IC50 was 8.3 nM.

Which IC50 does the source give for `N#Cc1cc(OC(F)(F)F)ccc1OC1CC2(C1)CN(C(=O)N1CC3(CC(n4cnc(C5CC5)n4)C3)C1)C2` [Example 47] here?
Its IC50 is 0.2 nM.

How did the IC50 turn out when `O=C(N1CC(Oc2nnccc2C(F)(F)F)C1)N1CC2(CC(n3cnc(C4CC4)n3)C2)C1` [Example 322, [6-(3-cyclopropyl-1,2,4-triazol-1-yl)-2-azaspiro[3.3]heptan-2-yl]-[3-[4-(trifluoromethyl)pyridazin-3-yl]oxyazetidin-1-yl]methanone] was run?
Its IC50 is 340 nM.

`CS(=O)(=O)c1cc(Cl)ccc1-c1ccc(C2CN(C(=O)N3CC4(CC(c5cncc(F)c5)C4)C3)C2)cc1` [Example 366, [3-[4-(4-chloro-2-methylsulfonyl-phenyl)phenyl]azetidin-1-yl]-[6-(5-fluoro-3-pyridyl)-2-azaspiro[3.3]heptan-2-yl]methanone] was tested. Which IC50 did it give?
The IC50 was 14.2 nM.

How did the IC50 turn out when `O=C(N1CC(C23CC(Cc4ccc(C(F)(F)F)nc4)(C2)C3)C1)N1CC2(CC(n3cnc(C4(O)CC4)n3)C2)C1` [Example 382, [6-[3-(1-hydroxycyclopropyl)-1,2,4-triazol-1-yl]-2-azaspiro[3.3]heptan-2-yl]-[3-[3-[[6-(trifluoromethyl)-3-pyridyl]methyl]-1-bicyclo[1.1.1]pentanyl]azetidin-1-yl]methanone] was run?
Its IC50 is 52.4 nM.

`O=C(N1CC2(CC(OCC3(C(F)(F)F)CC3)C2)C1)N1CC2(CC(n3cnc(C4CC4)n3)C2)C1` [Example 137, [6-(3-cyclopropyl-1,2,4-triazol-1-yl)-2-azaspiro[3.3]heptan-2-yl]-[6-[[1-(trifluoromethyl)cyclo-propyl]methoxy]-2-azaspiro[3.3]heptan-2-yl]methanone] was tested. Which IC50 did it give?
The IC50 was 4.5 nM.

Which IC50 does the source give for `CC(C)(C)c1nc(-c2ccc(C(=O)N3CC4(CC(n5cc(F)cn5)C4)C3)cc2)no1` [Example 15, [4-(5-tert-butyl-1,2,4-oxadiazol-3-yl)phenyl]-[6-(4-fluoropyrazol-1-yl)-2-azaspiro[3.3]heptan-2-yl]methanone] here?
The IC50 was 2670 nM.

Which IC50 does the source give for `CS(=O)(=O)c1cc(Cl)ccc1-c1ccc(C2CN(C(=O)N3CC4(CC(n5cncn5)C4)C3)C2)cc1` [Example 413, [3-[4-(4-chloro-2-methylsulfonyl-phenyl)phenyl]azetidin-1-yl]-[6-(1,2,4-triazol-1-yl)-2-azaspiro[3.3]heptan-2-yl]methanone] here?
The IC50 was 47.8 nM.

Which IC50 does the source give for `N#Cc1cc(CC2CC3(C2)CN(C(=O)N2CC4(CC(n5cnc(C6(O)CC6)n5)C4)C2)C3)ccc1C(F)(F)F` [Example 365, 5-[[2-[6-[3-(1-hydroxycyclopropyl)-1,2,4-triazol-1-yl]-2-azaspiro[3.3]heptane-2-carbonyl]-2-azaspiro[3.3]heptan-6-yl]methyl]-2-(trifluoromethyl) benzonitrile] here?
Its IC50 is 1.83 nM.
